Laboratory results taken from patent US11369662B2 (The Medical College of Wisconsin, Inc., priority 2014, dated 2022).
Marks after values point to notes of the source that are not given here.

Tests used:
CXCL121 = molecular target: T1, CXCL121 (Homo sapiens, UniProt P48061, I79C/L76C); experiment: 2D NMR (1H-15N HSQC) titration of CXCR4 peptides into CXCL121; format: binding; settings: ΔG = −RT ln Kd @ 298 K
T1 construct: made in house
Procedure: (§1) NMR spectroscopy. All NMR spectra were acquired on a Bruker DRX 600 MHz spectrometer equipped with a ^1H, ^15N, ^13C TXI cryoprobe at 298 K. Experiments were performed with either 50 μM [U-^15N]-CXCL12WT, -CXCL121, or -CXCL122 proteins in a solution containing 25 mM deuterated MES (pH 6.8), 10% (v/v) D2O, and 0.02% (w/v) NaN3. Full-length CXCR41-38 peptide titrations required 20 μM [U-^15N]-CXCL121 and -CXCL122 protein samples. Sulfated CXCR4 peptides were reconstituted at 100 mM in 25 mM deuterated MES, 10% (v/v) D2O, and 0.02% (w/v) NaN3 buffer. Unsulfated CXCR4 peptides were similarly reconstituted to 15 mM. Two separate 4ISIYTSD10 (SEQ ID NO:8) peptide samples were reconstituted at 10 mM and 15 mM peptide in 25 mM deuterated MES, 10% (v/v) D20, 0.02% (w/v) NaN3 buffer, from lyophilized powder.
(§2) Total peptide additions differed for individual peptide titrations but ranged from 0-160 equivalencies. Spectra were processed using in-house scripts and chemical shift tracking was performed using CARA software. Combined ^1H/^15N chemical shift perturbations were calculated as ((5 ΔδH)^2+(ΔδNH)^2)^0.5, where δH and δNH are the amide proton and nitrogen chemical shifts, respectively. Equilibrium dissociation constants (Kd) were determined by non-linear fitting of the combined ^1H/^15NH chemical shift perturbations as a function of peptide concentration to a single-site quadratic equation. For a given interaction, residues with the largest chemical shift perturbations were fitted individually. The resulting Kd values and their respective fitting errors were then averaged to produce the reported affinity and standard deviation for that interaction.

CXCL122 = molecular target: T2, CXCL122 (Homo sapiens, UniProt P48061, A86C/L57C); experiment: 2D NMR (1H-15N HSQC) titration of CXCR4 peptides into CXCL122; format: binding; settings: ΔG = −RT ln Kd @ 298 K
T2 construct: made in house
Procedure: as §1, §2

CXCL12WT = molecular target: T3, CXCL12WT (Homo sapiens, UniProt P48061); settings: ΔG = −RT ln Kd @ 298 K; calculated from Veldkamp et al. (32); cited from earlier work
T3 construct: made in house

In the case of `CC[C@H](C)[C@H](NC(=O)CNC(=O)[C@H](CCC(=O)O)NC(=O)[C@H](CCSC)NC(=O)[C@H](CCSC)NC(=O)CN)C(=O)N[C@@H](CO)C(=O)N[C@H](C(=O)N[C@@H](Cc1ccc(O)cc1)C(=O)N[C@H](C(=O)N[C@@H](CO)C(=O)N[C@@H](CC(=O)O)C(=O)N[C@@H](CC(N)=O)C(=O)N[C@@H](Cc1ccc(O)cc1)C(=O)N[C@H](C(=O)N[C@@H](CCC(=O)O)C(=O)N[C@@H](CCC(=O)O)C(=O)N[C@@H](CCSC)C(=O)NCC(=O)N[C@@H](CO)C(=O)NCC(=O)N[C@@H](CC(=O)O)C(=O)N[C@@H](Cc1ccc(O)cc1)C(=O)N[C@@H](CC(=O)O)C(=O)N[C@@H](CO)C(=O)N[C@@H](CCSC)C(=O)N[C@@H](CCCCN)C(=O)N[C@@H](CCC(=O)O)C(=O)N1CCC[C@H]1C(=O)N[C@@H](C)C(=O)N[C@@H](Cc1ccccc1)C(=O)N[C@@H](CCCNC(=N)N)C(=O)N[C@@H](CCC(=O)O)C(=O)N[C@@H](CCC(=O)O)C(=O)N[C@@H](CC(N)=O)C(=O)N[C@@H](C)C(=O)N[C@@H](CC(N)=O)C(=O)N[C@@H](Cc1ccccc1)C(=O)N[C@@H](CC(N)=O)C(=O)N[C@@H](CCCCN)C(=O)O)[C@@H](C)O)[C@@H](C)O)[C@@H](C)CC` [CXCR41-38], the “ΔG” value (CXCL121) is given as -7.43 kcal/mol, the “ΔG” value (CXCL122) is given as -8.24 kcal/mol and the “ΔG (kcal mol^−1)” value (CXCL12WT) is given as −7.29* kcal mol^−1.
